Results published in ChEMBL document CHEMBL3813609, “Efficient protein knockdown of HaloTag-fused proteins using hybrid molecules consisting of IAP antagonist and HaloTag ligand” (Bioorg Med Chem, 2016).
Each block holds one compound with its values, some of them ahead of it. Activity calls are given as the source filed them. No cut-off for these calls is given here. Where a SMILES comes first, the peptide text is derived from it. [ ]: non-standard residue; d: D form. The star is where a group is joined. Dip = N[C@H](C(=O)O)C(c1ccccc1)c1ccccc1; X2 = ClCCCCCCOCCOCCOCCOCCOCCN*; Chg = N[C@H](C(=O)O)C1CCCCC1; NMeA = CN[C@@H](C)C(=O)O; X1 = ClCCCCCCOCCOCCOCCN*

How the values were obtained:
Format in all cases: cell-based
[1] = molecular target: Transcription factor Jun (Homo sapiens) (UniProt P05412); assay: Induction of degradation of halo-tagged c-jun (unknown origin) expressed in HEK293 cells assessed as time required to reduce level of halo-tagged c-jun at 10 uM by Western blot analysis
[2] = molecular target: Cyclic AMP-responsive element-binding protein 1 (Homo sapiens) (UniProt P16220); assay: Induction of degradation of halo-tagged CREB1 (unknown origin) expressed in HEK293 cells at 10 uM by Western blot analysis
[3] = molecular target: Tumor necrosis factor (Homo sapiens) (UniProt P01375); assay: Induction of degradation of halo-tagged human TNFalpha expressed in HEK293 cells at 30 uM after 6 hrs by Western blot analysis
[4] = molecular target: Tumor necrosis factor (Homo sapiens) (UniProt P01375); assay: Induction of degradation of halo-tagged TNFalpha (unknown origin) expressed in HEK293 cells at 10 uM after 24 hrs by Western blot analysis
[5] = molecular target: Tumor necrosis factor (Homo sapiens) (UniProt P01375); assay: Induction of degradation of halo-tagged human TNFalpha expressed in HEK293 cells at 1 uM after 6 hrs by Western blot analysis
HEK293 [6] = assay: Induction of degradation of bacterial haloalkane dehalogenase expressed in HEK293 cells at 1 uM after 6 hrs by Western blot analysis; conditions: Bacteria
[7] = molecular target: Cell division control protein 42 homolog (Homo sapiens) (UniProt P60953); assay: Induction of degradation of halo-tagged human Cdc42 expressed in HEK293 cells at 1 uM after 6 hrs by Western blot analysis
HEK293 [8] = assay: Increase in level of bacterial haloalkane dehalogenase expressed in HEK293 cells at 0.1 to 0.3 uM after 6 hrs by Western blot analysis; conditions: Bacteria
[9] = molecular target: Tumor necrosis factor (Homo sapiens) (UniProt P01375); assay: Increase in level of halo-tagged human TNFalpha expressed in HEK293 cells at 0.1 to 0.3 uM after 6 hrs by Western blot analysis
[10] = molecular target: Tumor necrosis factor (Homo sapiens) (UniProt P01375); assay: Induction of degradation of halo-tagged human TNFalpha expressed in HEK293 cells at 1 uM after 6 hrs by Western blot analysis in presence of proteasome inhibitor MG132
[11] = molecular target: Tumor necrosis factor (Homo sapiens) (UniProt P01375); assay: Induction of degradation of halo-tagged human TNFalpha expressed in HEK293 cells after 6 hrs by Western blot analysis

Chain of Tumor necrosis factor (Homo sapiens) (P01375 whole entry): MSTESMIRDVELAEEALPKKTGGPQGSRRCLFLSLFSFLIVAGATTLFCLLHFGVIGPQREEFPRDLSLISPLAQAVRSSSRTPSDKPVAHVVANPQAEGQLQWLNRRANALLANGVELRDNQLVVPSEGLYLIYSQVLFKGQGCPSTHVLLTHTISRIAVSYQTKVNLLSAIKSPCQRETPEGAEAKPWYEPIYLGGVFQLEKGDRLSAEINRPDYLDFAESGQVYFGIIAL
Chain of Transcription factor Jun (Homo sapiens) (P05412 whole entry): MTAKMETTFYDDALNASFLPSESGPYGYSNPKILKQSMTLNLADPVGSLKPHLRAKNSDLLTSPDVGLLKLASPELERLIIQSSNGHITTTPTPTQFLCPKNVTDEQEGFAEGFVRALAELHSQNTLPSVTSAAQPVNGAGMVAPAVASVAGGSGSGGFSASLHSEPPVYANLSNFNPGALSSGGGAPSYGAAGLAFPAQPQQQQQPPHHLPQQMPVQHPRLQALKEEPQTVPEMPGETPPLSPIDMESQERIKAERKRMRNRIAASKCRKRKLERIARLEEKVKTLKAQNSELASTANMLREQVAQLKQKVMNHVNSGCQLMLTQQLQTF
Chain of Cyclic AMP-responsive element-binding protein 1 (Homo sapiens) (P16220 whole entry): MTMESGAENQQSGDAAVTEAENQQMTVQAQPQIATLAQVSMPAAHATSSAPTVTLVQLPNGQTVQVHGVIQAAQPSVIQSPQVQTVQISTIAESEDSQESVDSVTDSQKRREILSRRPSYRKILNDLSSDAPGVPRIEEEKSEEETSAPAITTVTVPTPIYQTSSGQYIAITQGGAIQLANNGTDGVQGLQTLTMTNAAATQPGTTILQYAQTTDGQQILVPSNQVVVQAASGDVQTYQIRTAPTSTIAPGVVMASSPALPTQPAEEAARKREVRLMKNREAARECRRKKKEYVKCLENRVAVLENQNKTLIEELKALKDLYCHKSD
Chain of Cell division control protein 42 homolog (Homo sapiens) (P60953 whole entry, looked up): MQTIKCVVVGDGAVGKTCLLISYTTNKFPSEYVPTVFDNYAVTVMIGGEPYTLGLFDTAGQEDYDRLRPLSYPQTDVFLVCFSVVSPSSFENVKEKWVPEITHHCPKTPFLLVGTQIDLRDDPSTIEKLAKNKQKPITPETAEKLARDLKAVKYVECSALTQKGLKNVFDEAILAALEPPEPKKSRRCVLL

Structure (SMILES): CC(C)C[C@H](NC(=O)[C@@H](O)[C@H](N)Cc1ccccc1)C(=O)NCCOCCOCCOCCOCCOCCCCCCCl
TIME [1]: 21 h
Activity [2]: Active

Structure (SMILES): CC(C)C[C@H](NC(=O)[C@@H](O)[C@H](N)Cc1ccccc1)C(=O)NCCOCCOCCOCCOCCOCCOCCCCCCCl
TIME [1]: 21 h
Activity [2]: Active

Structure (SMILES): NCCOCCOCCOCCCCCCCl
Activity [5]: inactive

Structure (SMILES): CC(C)C[C@H](NC(=O)[C@@H](O)[C@H](N)Cc1ccccc1)C(=O)NCCOCCOCCOCCCCCCCl
TIME [1]: 21 h
Activity [2]: Active

Structure (SMILES): CN[C@@H](C)C(=O)NC(C(=O)N1CCC[C@H]1C(=O)N[C@H](C(=O)OC)C(c1ccccc1)c1ccccc1)C1CCCCC1 (single isomer, unassigned)
Activity [5]: inactive

More lines, main results first:

TIME [1]: 21 h
Activity [2]: Active
Structure (SMILES): CC(C)C[C@H](NC(=O)[C@@H](O)[C@H](N)Cc1ccccc1)C(=O)NCCOCCOCCOCCOCCCCCCCl
Activity [3]: inactive
Activity [4]: Active

Activity [7]: Active
Structure (SMILES): CN[C@@H](C)C(=O)N[C@H](C(=O)N1CCC[C@H]1C(=O)N[C@H](C(=O)NCCOCCOCCOCCOCCOCCCCCCCl)C(c1ccccc1)c1ccccc1)C1CCCCC1 (H-[NMeA][Chg]P[Dip]-X2)
Activity (HEK293 [6]): Active
Activity (HEK293 [8]): Active
Activity [9]: Active
Activity [5]: inactive

Activity [7]: inactive
Structure (SMILES): CN[C@@H](C)C(=O)N[C@H](C(=O)N1CCC[C@H]1C(=O)N[C@H](C(=O)NCCOCCOCCOCCCCCCCl)C(c1ccccc1)c1ccccc1)C1CCCCC1 (H-[NMeA][Chg]P[Dip]-X1)
Activity [10]: inactive
Activity (HEK293 [6]): Active
Activity [11]: Dose-dependent effect
Activity (HEK293 [8]): Active
Activity [9]: Active
